PubChem BioAssay AID198 (DTP/NCI, 2004)
Values joined by “and” are separate entries in the source; they are usually repeats but may differ in a detail not shown here. Equal entries are not always repeated. Toxic doses and inconclusive results are not listed.

Tested on: B16 melanoma ip, C57BL/6 mice, median survival T/C
Assay: NCI In Vivo Anticancer Drug Screen. Data for tumor model B16 Melanoma (intraperitoneal) in C57BL/6 mice
Details: endpoint: median survival time, higher = longer survival
Procedure: The antitumor activity of compounds was measured in mice bearing transplantable tumors. Survival or tumor size were measured and the results are expressed as the measurement made in the treated group (T) divided by the measurement made in the vehicle treated control group (C). The tumor model used in this assay is B16 Melanoma (intraperitoneal) in C57BL/6 mice

[1] = dose: 6.25 mg/kg/injection, schedule: Q01DX009 (ip), vehicle: saline
[2] = dose: 12.5 mg/kg/injection, schedule: Q01DX009 (ip), vehicle: saline
[3] = dose: 25.0 mg/kg/injection, schedule: Q01DX009 (ip), vehicle: saline
[4] = dose: 50.0 mg/kg/injection, schedule: Q01DX009 (ip), vehicle: saline
[5] = dose: 100.0 mg/kg/injection, schedule: Q01DX009 (ip), vehicle: saline
[6] = dose: 75.0 mg/kg/injection, schedule: Q01DX009 (ip), vehicle: saline
[7] = dose: 150.0 mg/kg/injection, schedule: Q01DX009 (ip), vehicle: saline
[8] = dose: 300.0 mg/kg/injection, schedule: Q01DX009 (ip), vehicle: saline
[9] = dose: 0.25 mg/kg/injection, schedule: Q01DX009 (ip), vehicle: saline
[10] = dose: 0.5 mg/kg/injection, schedule: Q01DX009 (ip), vehicle: saline
[11] = dose: 1.0 mg/kg/injection, schedule: Q01DX009 (ip), vehicle: saline
[12] = dose: 0.13 mg/kg/injection, schedule: Q01DX009 (ip), vehicle: saline
[13] = dose: 200.0 mg/kg/injection, schedule: Q01DX009 (ip), vehicle: saline
[14] = dose: 31.3 mg/kg/injection, schedule: Q01DX009 (ip), vehicle: saline
[15] = dose: 125.0 mg/kg/injection, schedule: Q01DX009 (ip), vehicle: saline
[16] = dose: 25.0 mg/kg/injection, schedule: Q01DX009 (ip), vehicle: saline with Tween-80
[17] = dose: 50.0 mg/kg/injection, schedule: Q01DX009 (ip), vehicle: saline with Tween-80
[18] = dose: 100.0 mg/kg/injection, schedule: Q01DX009 (ip), vehicle: saline with Tween-80
[19] = dose: 15.0 mg/kg/injection, schedule: Q01DX009 (ip), vehicle: saline
[20] = dose: 60.0 mg/kg/injection, schedule: Q01DX009 (ip), vehicle: saline

SMILES: CN1C=c2c3c(ccc2=C2C=CC4C=C5OCOC5=CC4=C21)OCO3 (centres undefined)
- T/C (dose: 1.0 mg/kg/injection, schedule: Q01DX009 (ip), vehicle: saline with Tween-80): 103 % of control
- T/C (dose: 2.0 mg/kg/injection, schedule: Q01DX009 (ip), vehicle: saline with Tween-80): 92 % of control
- T/C (dose: 4.0 mg/kg/injection, schedule: Q01DX009 (ip), vehicle: saline with Tween-80): 96 % of control

SMILES: CN(C)CCCN1c2ccc(O)cc2Sc2ccc(Cl)cc21
- T/C [1]: 109 % of control
- T/C [2]: 115 % of control
- T/C [3]: 103 % of control
- T/C [4]: 103 % of control and 106 % of control
- T/C [5]: 100 % of control

SMILES: O=C(O)c1[nH]c(=O)[nH]c(=O)c1F
- T/C (dose: 1.25 mg/kg/injection, schedule: Q01DX009 (ip), vehicle: saline): 100 % of control
- T/C (dose: 2.5 mg/kg/injection, schedule: Q01DX009 (ip), vehicle: saline): 106 % of control and 110 % of control
- T/C (dose: 5.0 mg/kg/injection, schedule: Q01DX009 (ip), vehicle: saline): 100 % of control and 103 % of control
- T/C (dose: 10.0 mg/kg/injection, schedule: Q01DX009 (ip), vehicle: saline): 87 % of control and 89 % of control

SMILES: CC[C@H]1CN2CCc3cc(OC)c(OC)cc3[C@@H]2C[C@@H]1C[C@H]1NCCc2cc(OC)c(OC)cc21
- T/C (dose: 1.0 mg/kg/injection, schedule: Q03DX005 (ip), vehicle: saline): 106 % of control
- T/C (dose: 2.0 mg/kg/injection, schedule: Q03DX005 (ip), vehicle: saline): 109 % of control
- T/C (dose: 16.0 mg/kg/injection, schedule: Q03DX005 (ip), vehicle: saline): 87 % of control

SMILES: COc1cc(N(CCCl)CCCl)ccc1NC(=O)c1ccccc1
- T/C (dose: 1.56 mg/kg/injection, schedule: Q01DX009 (ip), vehicle: saline): 102 % of control
- T/C (dose: 3.13 mg/kg/injection, schedule: Q01DX009 (ip), vehicle: saline): 115 % of control
- T/C [1]: 115 % of control

SMILES: CN(C)c1nc(N(C)C)nc(N(C)C)n1
- T/C (dose: 37.5 mg/kg/injection, schedule: Q01DX009 (ip), vehicle: saline): 100 % of control
- T/C [6]: 103 % of control
- T/C [7]: 103 % of control
- T/C [8]: 103 % of control

SMILES: COc1cccc2c1C(=O)c1c(O)c3c(c(O)c1C2=O)C[C@@](O)(C(C)=O)C[C@@H]3OC1CC(N)C(O)C(C)O1 (some centres undefined)
- T/C [9]: 177 % of control
- T/C [10]: 188 % of control
- T/C [11]: 277 % of control
- T/C (dose: 2.0 mg/kg/injection, schedule: Q01DX009 (ip), vehicle: saline): 186 % of control

SMILES: CC[C@]1(O)C[C@H]2CN(CCc3c([nH]c4ccccc34)[C@@](C(=O)OC)(c3cc4c(cc3OC)N(C=O)[C@H]3[C@@](O)(C(=O)OC)[C@H](OC(C)=O)[C@]5(CC)C=CCN6CC[C@]43[C@@H]65)C2)C1
- T/C (dose: 0.06 mg/kg/injection, schedule: Q01DX009 (ip), vehicle: saline): 182 % of control
- T/C [12]: 189 % of control

SMILES: CCc1nc(N)nc(N)c1-c1ccc(Cl)cc1
- T/C [3]: 96 % of control
- T/C [4]: 100 % of control
- T/C [5]: 93 % of control
- T/C [13]: 113 % of control

SMILES: CCOC(=O)n1cnc2ncnc(SC)c21
- T/C (dose: 15.6 mg/kg/injection, schedule: Q01DX009 (ip), vehicle: saline): 105 % of control
- T/C [14]: 100 % of control
- T/C (dose: 62.5 mg/kg/injection, schedule: Q01DX009 (ip), vehicle: saline): 105 % of control
- T/C [15]: 100 % of control

SMILES: CCOC(N)=O
- T/C [15]: 100 % of control
- T/C (dose: 250.0 mg/kg/injection, schedule: Q01DX009 (ip), vehicle: saline): 107 % of control
- T/C (dose: 500.0 mg/kg/injection, schedule: Q01DX009 (ip), vehicle: saline): 100 % of control

SMILES: COC1=C(N)C(=O)c2nc(-c3nc(C(=O)O)c(C)c(-c4ccc(OC)c(OC)c4O)c3N)ccc2C1=O
- T/C (dose: 0.03 mg/kg/injection, schedule: Q01DX009 (ip), vehicle: saline): 103 % of control
- T/C (dose: 0.05 mg/kg/injection, schedule: Q01DX009 (ip), vehicle: saline): 93 % of control and 100 % of control and 118 % of control

SMILES: C1CN1c1nc(N2CC2)nc(N2CC2)n1
- T/C [12]: 103 % of control and 116 % of control and 120 % of control
- T/C [9]: 109 % of control and 120 % of control and 122 % of control
- T/C [10]: 86 % of control
- T/C [11]: 100 % of control

SMILES: CN(C)CC(=O)c1ccc(O)c(O)c1
- T/C [6]: 112 % of control
- T/C [7]: 109 % of control
- T/C [8]: 115 % of control
- T/C (dose: 600.0 mg/kg/injection, schedule: Q01DX009 (ip), vehicle: saline): 121 % of control

SMILES: CN1CCN(CCCN2c3ccccc3Sc3ccc(C(F)(F)F)cc32)CC1
- T/C [3]: 107 % of control

SMILES: Nc1ncnc2c(C3OC(CO)C(O)C3O)[nH]nc12 (centres undefined)
- T/C (dose: 8.0 mg/kg/injection, schedule: Q01DX009 (ip), vehicle: saline): 153 % of control
- T/C (dose: 16.0 mg/kg/injection, schedule: Q01DX009 (ip), vehicle: saline): 113 % of control
- T/C [14]: 157 % of control

SMILES: CC(=O)[C@@]1(O)CC[C@H]2[C@@H]3C[C@H](C)C4=CC(=O)C=C[C@]4(C)[C@@]3(F)[C@@H](O)C[C@@]21C
- T/C [2]: 105 % of control
- T/C (dose: 12.5 mg/kg/injection, schedule: Q01DX009 (sc), vehicle: steriod suspending solution): 106 % of control
- T/C [3]: 105 % of control
- T/C (dose: 25.0 mg/kg/injection, schedule: Q01DX009 (sc), vehicle: steriod suspending solution): 103 % of control
- T/C [4]: 100 % of control
- T/C [5]: 100 % of control

SMILES: c1ccc2sc(SSN3CC4CCC(CC4)C3)nc2c1
- T/C (dose: 12.5 mg/kg/injection, schedule: Q01DX009 (ip), vehicle: saline with Tween-80): 100 % of control
- T/C [16]: 94 % of control
- T/C [17]: 94 % of control
- T/C [18]: 89 % of control
- T/C (dose: 200.0 mg/kg/injection, schedule: Q01DX009 (ip), vehicle: saline with Tween-80): 88 % of control

SMILES: CCN(CC)CCOc1ccc2c(c1)C(=O)c1cc(OCCN(CC)CC)ccc1-2
- T/C [16]: 103 % of control
- T/C [17]: 92 % of control
- T/C [18]: 114 % of control

SMILES: Nc1nc2ncc(CNc3ccc(C(=O)NC(CCC(=O)O)C(=O)O)cc3)nc2c(=O)[nH]1 (centres undefined)
- T/C [2]: 100 % of control and 103 % of control
- T/C [3]: 97 % of control and 106 % of control

SMILES: NC(=O)Oc1cc(OC(N)=O)cc(N(CCCl)CCCl)c1
- T/C [2]: 110 % of control
- T/C [4]: 123 % of control

SMILES: CN(C)/N=N/c1nc[nH]c1C(N)=O
- T/C [3]: 116 % of control
- T/C [4]: 120 % of control
- T/C [5]: 150 % of control

SMILES: CO[C@H]1/C=C/O[C@@]2(C)Oc3c(C)c(O)c4c(O)c(c(/C=N/N5CCN(C)CC5)c(O)c4c3C2=O)NC(=O)/C(C)=C\C=C\[C@H](C)[C@H](O)[C@@H](C)[C@@H](O)[C@@H](C)[C@H](OC(C)=O)[C@@H]1C
- T/C [4]: 106 % of control
- T/C [5]: 109 % of control
- T/C [13]: 112 % of control

SMILES: CN1Cc2c(ccc3c2OCO3)[C@@H]2[C@H](O)Cc3cc4c(cc3[C@@H]21)OCO4
- T/C (dose: 62.5 mg/kg/injection, schedule: Q01DX009 (ip), vehicle: saline with Tween-80): 107 % of control
- T/C (dose: 125.0 mg/kg/injection, schedule: Q01DX009 (ip), vehicle: saline with Tween-80): 110 % of control
- T/C (dose: 250.0 mg/kg/injection, schedule: Q01DX009 (ip), vehicle: saline with Tween-80): 117 % of control

SMILES: O=c1[nH]cc(N(CCCl)CCCl)c(=O)[nH]1
- T/C (dose: 1.5 mg/kg/injection, schedule: Q01DX009 (ip), vehicle: saline): 87 % of control and 106 % of control

SMILES: S=c1nc[nH]c2nc[nH]c12
- T/C (dose: 7.5 mg/kg/injection, schedule: Q01DX009 (ip), vehicle: saline): 93 % of control and 100 % of control
- T/C [19]: 90 % of control and 93 % of control
- T/C (dose: 30.0 mg/kg/injection, schedule: Q01DX009 (ip), vehicle: saline): 93 % of control
- T/C [20]: 93 % of control

SMILES: N#CSCc1ccc(Cl)cc1Cl
- T/C [16]: 102 % of control
- T/C [17]: 100 % of control

SMILES: Nc1nc2n[nH]nc2c(=O)[nH]1
- T/C [3]: 100 % of control
- T/C [4]: 103 % of control
- T/C [5]: 86 % of control
- T/C [13]: 90 % of control

SMILES: NC(Cc1ccc(N(CCCl)CCCl)cc1)C(=O)O (centres undefined)
- T/C (dose: 4.0 mg/kg/injection, schedule: Q01DX009 (ip), vehicle: saline): 200 % of control and 268 % of control and 350 % of control

SMILES: CC(CN1CC(=O)NC(=O)C1)N1CC(=O)NC(=O)C1 (centres undefined)
- T/C [19]: 109 % of control
- T/C [20]: 90 % of control
